The values below come from PMC9036659, “Boron-containing capsaicinoids” (RSC Advances, 2021).

Data set [1] deals with green monkey kidney cells Vero (ATCC CCL-81). As to the kind of experiment: Cytotoxicity assay (Alamar blue), Vero. It counts as cell-based. As to conditions: for IC50: Chlorocebus sabaeus, Vero, 24 h incubation, average ± SD, Inactive = inhibition above 300 μM, read-out: IC50 Vero (normal cell line). On the procedure:
(§1) The cells (human foreskin BJ fibroblast cells (ATCC CRL-2522), green monkey kidney cells Vero (ATCC CCL-81), human breast adenocarcinoma cells (ATCC HTB-26 MDA-MB 231), human breast adenocarcinoma cells (MCF7 ATCC HTB-22), and human colorectal carcinoma cells (HCT116 ATCC CCL-247)) were grown to 80% confluency, the cells were counted, diluted, and plated into treated 96-well cell culture plates. The BJ fibroblast and Vero cells were plated at a cell density of 10 000 cells per well and the HTB26, HCT116 and MCF7 cells were plated at cell density of 5000 cells per well in 90 μL of respective growth medium (without the addition of antibiotics) and incubated for 24 h to allow cells to adhere to the plates before treatment. Pure compounds were tested in triplicate in serial dilutions of seven concentrations ranging from 2 to 128 μg mL^−1 per well (final well volume of 100 μL, 1% DMSO per well). Each of the cell lines were incubated at 37 °C in a humidified atmosphere of 5% CO2; the BJ fibroblast and Vero cells for 24 h and the HTB-26, HCT116 and MCF7 cells for 72 h. Each plate contained four uninoculated positive controls, four untreated negative controls, and one column containing a concentration range for doxorubicin. Alamar blue was added, 24 h after the treatment, and fluorescence was monitored using a Cytation Gen 5 plate reader using 560 nm Ex/590 Em both at time zero and 4 h after Alamar blue addition. The inferred percentage of cell viability relative to vehicle control wells were calculated after subtracting the time zero emission 590 nm measurement from the final reading and the IC50 was determined. […]
(§2) Cytotoxicity Assay Data Alamar blue was added, 24 h after the treatment, and fluorescence was monitored using a Cytation Gen 5 plate reader using 560 nm Ex/590 Em both at time zero and 4 h after Alamar blue addition. The inferred percentage of cell viability relative to vehicle control wells were calculated after subtracting the time zero emission 590 nm measurement from the final reading and the IC50 was determined.

In data set [2] the test system is Candida albicans (ATCC 14035). As to the kind of experiment: Antimicrobial assay, C. albicans (OD600). It counts as cell-based. The method, then:
(§3) The microorganisms (methicillin-resistant S. aureus MRSA 310, vancomycin-resistant E. faecium VRE 379, S. warneri (ATCC 17917), P. vulgaris (ATCC 12454), P. aeruginosa (ATCC 14210), and C. albicans (ATCC 14035)) were grown overnight on agar media. The following day the cultures were transferred into 0.9% saline water into a sterile glass tube. Using the McFarland reader, the turbidity was determined and further diluted into their respective media. The pure compounds were tested at seven different concentrations ranging from 2 to 128 μg mL^−1 in triplicate. Samples were plated into 96 well plates (10 μL in 20% DMSO) and then diluted pathogen (90 μL) was pipetted into the pre-prepared sample plates yielding 5 × 10^5 cfu mL^−1 with a final volume of 100 μL. Antibiotics that are active against specific pathogens were used as positive controls. The plates were incubated into a 37 °C incubator for 22 h. Growth of S. warneri. P. vulgaris, P. aeruginosa and C. albicans were measured by reading optical density (OD600), or in the case of slow growing microorganisms (MRSA and VRE), PrestoBlue was used to assess metabolic activity by measuring fluorescence (535–560)/(590–615) (excitation/emission) using a Thermo Scientific Varioskan Flash plate reader at time zero and then again after incubation of the plates for 22 h at 37 °C. After subtracting the time zero OD600 from the final reading, the percentages of microorganism survival relative to vehicle control wells were calculated. […]
(§4) Antimicrobial Assay Data Growth of S. warneri. P. vulgaris, P. aeruginosa and C. albicans were measured by reading optical density (OD600), or in the case of slow growing microorganisms (MRSA and VRE), PrestoBlue was used to assess metabolic activity by measuring fluorescence (535-560)⁄(590-615) (excitation/emission) using a Thermo Scientific Varioskan Flash plate reader at time zero and then again after incubation of the plates for 22 h at 37 °C. After subtracting the time zero OD600 from the final reading, the percentages of microorganism survival relative to vehicle control wells were calculated. […]

Data set [3] deals with Staphylococcus warneri (ATCC 17917). As to the kind of experiment: Antimicrobial assay, S. warneri (OD600). In kind it is cell-based. On the procedure: as §3, §4
The subject of data set [4] is human colorectal carcinoma cells (HCT116 ATCC CCL-247). As to the kind of experiment: Cytotoxicity assay (Alamar blue), HCT116. It counts as cell-based. The following applies: for IC50: Homo sapiens, HCT-116, 72 h incubation, average ± SD, Inactive = inhibition above 300 μM, read-out: IC50 HCT (cancer cell line). The method, then:
as §1, §2

In data set [5] the test system is methicillin-resistant Staphylococcus aureus MRSA 310. As to the kind of experiment: Antimicrobial assay, MRSA (PrestoBlue fluorescence). It counts as cell-based. The method, then: as §3, §4
Data set [6] deals with human breast adenocarcinoma cells (ATCC HTB-26 MDA-MB 231). As to the kind of experiment: Cytotoxicity assay (Alamar blue), HTB-26. In kind it is cell-based. As to conditions: for IC50: Homo sapiens, HTB26, 72 h incubation, average ± SD, Inactive = inhibition above 300 μM, read-out: IC50 HTB (cancer cell line). On the procedure:
as §1, §2
For orientation: Alamar Blue is a resazurin reagent that responds to reducing activity.

In data set [7] the test system is Proteus vulgaris (ATCC 12454). As to the kind of experiment: Antimicrobial assay, P. vulgaris (OD600). It counts as cell-based. The method, then:
as §3, §4

Data set [8] relates to Pseudomonas aeruginosa (ATCC 14210). As to the kind of experiment: Antimicrobial assay, P. aeruginosa (OD600). In kind it is cell-based. The method, then:
as §3, §4

The test system of data set [9] is human breast adenocarcinoma cells (MCF7 ATCC HTB-22). As to the kind of experiment: Cytotoxicity assay (Alamar blue), MCF7. In kind it is cell-based. As to conditions: for IC50: Homo sapiens, MCF7, 72 h incubation, average ± SD, Inactive = inhibition above 300 μM, read-out: IC50 MCF7 (cancer cell line). The method, then:
as §1, §2

Data set [10] relates to vancomycin-resistant Enterococcus faecium VRE 379. As to the kind of experiment: Antimicrobial assay, VRE (PrestoBlue fluorescence). In kind it is cell-based. The method, then: as §3, §4
Data set [11] has as its system human foreskin BJ fibroblast cells (ATCC CRL-2522). As to the kind of experiment: Cytotoxicity assay (Alamar blue), BJ. In kind it is cell-based. As to conditions: for IC50: Homo sapiens, Fibroblast, 24 h incubation, average ± SD, Inactive = inhibition above 300 μM, read-out: IC50 BJ (normal cell line). On the procedure: as §1, §2
In data set [12] the test system is vancomycin-resistant Enterococcus. The arrangement: method as in doi:10.1139/cjc-2018-0193. The following applies: data collected in previous study, Inactive = inhibition above 400 μM, cited from earlier work.
The subject of another data set is MRSA. Set-up: method as in doi:10.1139/cjc-2018-0193. As to conditions: data collected in previous study; Inactive = inhibition above 400 μM; cited from earlier work.
Setting [13] is: 22 h, 37 °C, Inactive = inhibition above 300 μM.
Where [14] appears, read: 22 h, 37 °C, average ± SD, Inactive = inhibition above 300 μM.

Regarding `CCCCCCCCCCCCCCc1ccc(N(Cc2ccc(OC)c(OC)c2)C(=O)CCCCCCCCB2OC(C)(C)C(C)(C)O2)cc1` [Compound 34, N-(3,4-dimethoxybenzyl)-N-(4-tetradecylphenyl)-9-(4,4,5,5-tetramethyl-1,3,2-dioxaborolan-2-yl)nonamide], the “cytotoxic activity against Vero (in words)” value in data set [1] was “inactive”. For the same molecule, in data set [2], the “antimicrobial activity against C. albicans (in words)” value is “inactive”. Moreover, the “antimicrobial activity against S. warneri (in words)” value in [3] is “inactive”. In addition, in data set [4], the “cytotoxic activity against HCT116 (in words)” value was “inactive”. Besides, the “antimicrobial activity against MRSA (in words)” value in [5] was “inactive”. Besides, in data set [6], the “cytotoxic activity against HTB-26 MDA-MB 231 (in words)” value was “inactive”. Moreover, the “antimicrobial activity against P. vulgaris (in words)” value in data set [7] was “inactive”. For the same molecule, the “antimicrobial activity against P. aeruginosa (in words)” value in [8] is “inactive”. The “cytotoxic activity against MCF7 (in words)” value in [9] was “inactive”. In addition, the “antimicrobial activity against VRE (in words)” value in data set [10] was “inactive”. The “cytotoxic activity against BJ (in words)” value in data set [11] was “inactive”.
For the molecule `COc1cc(CNC(=O)CCCCCCCCCCB2OC(C)(C)C(C)(C)O2)ccc1OCc1ccccc1` [Compound 8b], the “VRE MIC90” value in data set [12] is reported as “Inactive”. Besides, the IC50 (in general, the concentration at which inhibition is half-maximal) in data set [12] (read-out: VRE IC50) is 277 µM; in the data set with MRSA, 245 µM. Moreover, the “MRSA MIC90” value with MRSA is “Inactive”.
On to `CCCCc1ccc(N(Cc2ccc(OC)c(OC)c2)C(=O)CCCCCCCCB2OC(C)(C)C(C)(C)O2)cc1` [Compound 33, N-(4-butylphenyl)-N-(3,4-dimethoxybenzyl)-9-(4,4,5,5-tetramethyl-1,3,2-dioxaborolan-2-yl)nonamide], for which, in data set [1], the “cytotoxic activity against Vero (in words)” value was “unselective cytotoxic effects” and the concentration for half-maximal inhibition (IC50) stood at 20.9 ± 1.2 µM. The “antimicrobial activity against C. albicans (in words)” value in data set [2] is “inactive”. In addition, the “antimicrobial activity against S. warneri (in words)” value in data set [3] is “inactive”. In data set [4], the “cytotoxic activity against HCT116 (in words)” value is on record as “unselective cytotoxic effects” and the half-maximal inhibitory concentration (IC50) was found to be 20.3 ± 0.7 µM. Further, in [5], the “antimicrobial activity against MRSA (in words)” value was “inactive”. In data set [6], the “cytotoxic activity against HTB-26 MDA-MB 231 (in words)” value is on record as “unselective cytotoxic effects” and the half-maximal inhibitory concentration (IC50) stood at 21.2 ± 3.5 µM. In addition, in data set [7], the “antimicrobial activity against P. vulgaris (in words)” value was “inactive”. The “antimicrobial activity against P. aeruginosa (in words)” value in data set [8] is “inactive”. In data set [9], the “cytotoxic activity against MCF7 (in words)” value is on record as “unselective cytotoxic effects” and the half-inhibitory concentration (IC50) turned out to be 3.4 ± 2.2 µM. In addition, the “antimicrobial activity against VRE (in words)” value in data set [10] is “inactive”. In data set [11], the “cytotoxic activity against BJ (in words)” value is on record as “unselective cytotoxic effects” and the IC50 is 24.2 ± 0.2 µM.
Regarding `COc1cc(CNC(=O)CCCCB2OC(C)(C)C(C)(C)O2)ccc1OCc1ccccc1` [Compound 8a], in data set [12], the “VRE IC50” value is given as “Inactive” and the “VRE MIC90” value was “Inactive”. In the data set on MRSA, the IC50 is 107 µM and the “MRSA MIC90” value was “Inactive”.
On to `COc1cc(CNC(=O)CCCC/C=C/C(C)C)ccc1O` [Capsaicin], for which, in [12], the “VRE IC50” value is on record as “Inactive” and the “VRE MIC90” value is recorded as “Inactive”. In addition, in the data set on MRSA, the “MRSA IC50” value was “Inactive” and the “MRSA MIC90” value was “Inactive”.
On to `CCCCCC(=O)N(Cc1ccc(OC)c(OC)c1)c1ccccc1` [Compound 21, N-(3,4-dimethoxyphenylmethyl)-N-(phenyl)-hexanamide], for which the melting point (commonly the temperature, or range, at which the solid turns liquid) was in the range of 31.5 to 33.8 °C.
Regarding `OB(O)c1ccccc1` [Phenylboronic acid], in data set [12], the “VRE IC50” value is “Inactive” and the “VRE MIC90” value was “Inactive”. In the data set with MRSA, the IC50 was 170 µM and the “MRSA MIC90” value is “Inactive”.
Turning to `COc1ccc(CN(C(=O)CCCCCCCCB2OC(C)(C)C(C)(C)O2)c2ccccc2)cc1OC` [Compound 32, N-(3,4-dimethoxybenzyl)-N-phenyl-9-(4,4,5,5-tetramethyl-1,3,2-dioxaborolan-2-yl)nonamide], in data set [1], the “cytotoxic activity against Vero (in words)” value is given as “unselective cytotoxic effects” and the IC50 was 77.1 ± 8.4 µM. The “S. warneri MIC90” value in data set [3] (setting [13]) is given as “Inactive”. Moreover, the “S. warneri IC50” value in data set [3] (setting [14]) is listed as “Inactive”. In addition, in data set [4], the “cytotoxic activity against HCT116 (in words)” value was “unselective cytotoxic effects” and the IC50 came out at 80.1 ± 3.9 µM. Moreover, in [5], the “antimicrobial activity against MRSA (in words)” value is reported as “only active against MRSA”. Moreover, the “MRSA MIC90” value in [5] (22 h, 37 °C, concentration for 90% growth inhibition, Inactive = inhibition above 300 μM) is listed as “Inactive”. Also, the half-maximal inhibitory concentration (IC50) in [5] (Staphylococcus aureus, MRSA, 22 h, 37 °C, average ± SD, Inactive = inhibition above 300 μM, read-out: MRSA IC50) was found to be 154 ± 37.1 µM. In [6], the “cytotoxic activity against HTB-26 MDA-MB 231 (in words)” value is “unselective cytotoxic effects” and the half-inhibitory concentration (IC50) was found to be 42.6 ± 1.8 µM. Further, in data set [9], the “cytotoxic activity against MCF7 (in words)” value was “unselective cytotoxic effects” and the IC50 was found to be 68.5 ± 15.1 µM. In addition, in [10] (setting [13]), the “VRE MIC90” value is on record as “Inactive”. Further, the “VRE IC50” value in data set [10] (setting [14]) is “Inactive”. In [11], the “cytotoxic activity against BJ (in words)” value is “unselective cytotoxic effects” and the IC50 is 112 ± 10 µM.
